In PMC4694998, “Suppression of β-catenin/TCF transcriptional activity and colon tumor cell growth by dual inhibition of PDE5 and 10” (Oncotarget, 2015):

Columns and labels:
[1] = test system: β-catenin/TCF transcriptional activity in HCT116 cells; assay type: cell-based; details: HCT116, 24 hours of treatment
Protocol: Cells were seeded at a density of 5 × 10^4 cells per well in 24-well tissue culture plates and incubated overnight at 37°C. Cells were transiently transfected with 0.1 μg TOP-FLASH constructs (Millipore) and 0.1 μg β-galactosidase-expressing vector (Promega). After 24 hours of transfection, cells were treated with ADT-094 or vehicle for 24 hours. At the end of treatment, cells were lysed and both luciferase and β-galactosidase activities were measured using kits from Promega. All luciferase activity was normalized to β-galactosidase activity.

PDE5 = biological target: T1, PDE5 (Homo sapiens, UniProt O76074); test: IMAP fluorescence polarization PDE assay, recombinant PDE5; assay type: biochemical; details: recombinant enzyme
T1 construct: purchased BPS Biosciences
Protocol: Recombinant PDE isozymes were purchased from BPS Biosciences. The PDE10 antibody was purchased from GeneTex, while the PDE5 antibody was purchased from Cell Signaling Technologies. Non-targeting control siRNA and PDE10 specific siRNAs were purchased from Qiagen. RNAiMAX transfection reagent was purchased from Invitrogen. DMSO was used as vehicle for all compounds unless otherwise noted. All other reagents were purchased from Sigma.
PDE activity was measured using the IMAP fluorescence polarization (FP) PDE assay (Molecular Devices) in which binding of hydrolyzed fluorescent cyclic nucleotide substrate to the IMAP reagent increases FP as described previously.
(§1) The IC50 values were determined as described previously. All experiments were repeated a minimum of three times to determine the reproducibility of the results. All error bars represent standard error of the mean (SEM). Statistical analysis of differences between samples was performed using the Student’s t-test. A P value of < 0.05 was considered statistically significant.

HCT116 colon tumor cells [2] = test: Apoptosis assay (Caspase 3/7 Glo), HCT116; assay type: cell-based, human; details: caspase-3 and -7, 6 hours of treatment
Protocol: Cells were plated in 96-well microtiter plates at a density of 10,000 cells per well, and allowed to attach overnight. Cells were treated with ADT-094 or vehicle, and incubated at 37°C for 6 hours. All apoptosis assays were done in 5% serum using either tumor cells or normal colonocytes. The induction of apoptosis caused by treatment was determined using Caspase 3/7 Glo Assay (Promega), which is a luminescent assay that measures substrate cleavage by caspases-3 and -7. The assay was done according to manufacturer’s specifications.

HT29 colon tumor cells = test: Growth assay (Cell Titer Glo), HT29; assay type: cell-based; details: Homo sapiens, HT-29; 72 hours of treatment; read-out: HT29 growth IC50
Protocol: (§2) Human colon tumor cell lines, HCT116, HT29, SW480 and Caco-2 were obtained from the American Type Culture Collection (ATCC) and grown under standard cell culture conditions in RPMI 1640 medium containing 5% serum at 37°C in a humidified atmosphere with 5% CO2. The human colonocyte line, NCM460, that is derived from normal human colon mucosa was obtained from INCELL and grown in INCELL’s enriched M3:10 medium with 10% serum as recommended by supplier. All cell lines were expanded upon delivery, and numerous aliquots of low passage cells were preserved in liquid N2. Cells were passaged no longer than 2 months. Tumor cell lines obtained from ATCC were characterized by STR profiling as performed by ATCC. The NCM460 line was characterized by INCELL as described previously (e.g. tumorigenicity testing). No additional re-authentication of the cell lines was performed except for experimental reasons (e.g. confirmation of cell doubling time, morphology, sensitivity to SS, PDE5/10 expression levels, etc).
(§3) Cells were plated in 96-well microtiter plates at a density of 5,000 cells per well. For drug treatment, cells were treated with compound or vehicle, and incubated at 37°C for 72 hours. All growth assays were performed in 5% serum unless otherwise noted. Deionized water was used as vehicle control for papaverine. For siRNA assays, cells were transfected with siRNA under the same condition described above. The effect of treatment on cell growth was measured using the Cell Titer Glo Assay as specified by the manufacturer (Promega).
as §1

[3] = test system: PKG/PKA activity (VASP Ser239/Ser157) in Caco-2 colon tumor cells; test: Western blotting of VASP phosphorylation, Caco-2; assay type: cell-based, human
Protocol: (§4) Western blotting was performed as described previously. Cells were treated with ADT-094 or vehicle for 8 hours before cell lysates were collected.

[4] = test system: β-catenin signaling in Caco-2 colon tumor cells; test: Western blotting of β-catenin, cyclin D1, survivin, Caco-2; assay type: cell-based, human
Protocol: as §4

HCT116 colon tumor cells [5] = test: Cell proliferation assay (EdU incorporation, flow cytometry); assay type: cell-based, human; details: 24 hours treatment with 0.1 μmol/L
Protocol: The antiproliferative activity of ADT-094 was determined by measuring EdU (5-ethynyl-2′-deoxyuridine) incorporation during DNA synthesis. Cells were plated at a density of 1.5 × 10^6 cells per 10 cm tissue culture dish and incubated overnight at 37°C. After growing the cells in serum-free media overnight, the cells were treated with ADT-094 or vehicle in medium supplemented with 10% serum for 6 hours. A final concentration of 10 μmol/L EdU was added to each dish and incubated for an additional 18 hours. Cells were harvested and analyzed using the Click-iT EdU Alexa Fluor 488 Proliferation Assay (Invitrogen) according to the manufacturer’s specifications. The percentage of proliferating cells was quantified using a BD FACSCalibur flow cytometer.

HCT116 colon tumor cells [6] = test: Growth assay (Cell Titer Glo), HCT116; assay type: cell-based, human; details: Homo sapiens, HCT-116; 72 hours of treatment; read-out: HCT116 growth IC50
Protocol: All cell lines were expanded upon delivery, and numerous aliquots of low passage cells were preserved in liquid N2. Cells were passaged no longer than 2 months. Tumor cell lines obtained from ATCC were characterized by STR profiling as performed by ATCC. The NCM460 line was characterized by INCELL as described previously (e.g. tumorigenicity testing). No additional re-authentication of the cell lines was performed except for experimental reasons (e.g. confirmation of cell doubling time, morphology, sensitivity to SS, PDE5/10 expression levels, etc). Cells were plated in 96-well microtiter plates at a density of 5,000 cells per well. For drug treatment, cells were treated with compound or vehicle, and incubated at 37°C for 72 hours. […] For siRNA assays, cells were transfected with siRNA under the same condition described above. The effect of treatment on cell growth was measured using the Cell Titer Glo Assay as specified by the manufacturer (Promega). The IC50 values were determined as described previously. All experiments were repeated a minimum of three times to determine the reproducibility of the results. All error bars represent standard error of the mean (SEM). Statistical analysis of differences between samples was performed using the Student’s t-test.

[7] = test system: NCM460 normal colonocytes; test: Growth assay (Cell Titer Glo), NCM460 normal colonocytes; assay type: cell-based, human
Protocol: as §2, §3, §1

Question: What does the source list for `COc1ccc2c(c1)C(CC(=O)NCc1ccco1)=C(C)/C2=C/c1cc(OC)c(OC)c(OC)c1` [ADT-094, (Z)-N-(furan-2-ylmethyl)-2-(5-methoxy-2-methyl-1-(3,4,5-trimethoxybenzylidene)-1H-inden-3-yl) acetamide]?
Answer: β-catenin/TCF transcriptional activity [1]: significantly inhibited; IC50 (PDE5): 2400 nM; caspase activity (apoptosis) (HCT116 colon tumor cells [2]): increased caspase activity; IC50 (HT29 colon tumor cells): 100 nM; VASP phosphorylation at Ser239 ([3]; Caco-2): Dose-dependent increases; PKA activity (VASP phosphorylation at Ser157) ([3]; Caco-2, at concentrations that cause PKG activation): did not affect PKA activity; levels of cyclin D1 and survivin [4]: also decreased; β-catenin levels [4]: dose-dependent decrease; proliferation (EdU incorporation) (HCT116 colon tumor cells [5]): inhibited the proliferation; IC50 (HCT116 colon tumor cells [6]): 100 nM; IC50 ([7]; Homo sapiens, NCM460, Figure 3C, luciferase-based ATP assay, 72 hours, read-out: NCM460 growth IC50): > 10000 nM; growth of normal colonocytes (tumor cell selectivity) ([7]; in words): essentially refractory to treatment
